Read-outs that look alike come from different tables or passages of the source.
Tests used:
HCT116 WT cells = experiment: HCT116 WT cell line proliferation (CellTiter-Glo cell viability, 6 days); format: cell-based; conditions: HCT116 WT (parent) cells, 6 days of treatment, CellTiter-Glo cell viability, read-out: HCT-116 WT IC50
Experimental: (§1) To assess selective anti-proliferative activity of compounds of the invention in cells that have loss expression of MTAP, an HCT-116 isogenic cell line pair was utilized where one cell line was engineered to genetically knockout both MTAP alleles. Cell viability was then assessed in both the parent HCT-116 cell line and the MTAP null cell line after 6 days of treatment with compounds of the present invention. Selective anti-proliferative activity in the MTAP null cell line indicates MTA-cooperative inhibition of PRMT5 and ability to inhibit growth of cancer cells that have loss of MTAP.
(§2) HCT116 MTAP null and WT cells were seeded in 96-well tissue culture plates in RPMI 1640 media+10% fetal bovine serum. Plates were incubated overnight at 37° C. and 5% CO2. Cells were then treated with an 8- or 9-point serial dilution of compound, using a top concentration of 1, or 10 μM, 1:3 serial dilution steps and, a DMSO-only control. Cells were incubated in the presence of drug for 6 days. Effects on cell viability were measured with the CellTiter-Glo® Luminescent Cell Viability Assay (Promega) per manufacturer's recommendation. Assay plates were read on an EnVision™ Multilabel Reader using the Ultra-Sensitive luminescence module. IC50 values were calculated with GraphPad Prism v 5.01 using symmetrical sigmoidal dose-response least squares fit with Hill slope fixed to −1 and top constrain to 100% or GeneData Screener using a 4-parameter logistic model to fit dose response curves.
(§3) Alternatively, compounds could be assayed with a 384 well plate format:
(§4) Compounds were pre-spotted into 384 well plates with a 22-point serial dilution of compound, using a top concentration of 10 or 50 μM, 1:2 serial dilution steps and, a DMSO-only control. HCT116 MTAP null and WT cells were then seeded as above and after 6 days effects on cell viability were measured with the CellTiter-Glo® Luminescent Cell Viability Assay (Promega). Assay plates were read as above and IC50 values were calculated with GeneData Screener using a 4-parameter logistic model to fit dose response curves. The reported IC50 represents the value where the curve transits 50% of control.

HCT116 MTAP null cells = experiment: HCT116 MTAP null cell line proliferation (CellTiter-Glo cell viability, 6 days); format: cell-based; conditions: HCT116 MTAP null cells, 6 days of treatment, CellTiter-Glo cell viability, read-out: HCT-116 MTAP null IC50
Experimental: as §1, §2, §3, §4

Structure (SMILES) | IC50 (HCT116 WT cells) | IC50 (HCT116 MTAP null cells) | IC50 (HCT116 WT cells; Homo sapiens, HCT-116, 144 h) | IC50 (HCT116 MTAP null cells; HCT116-MTAP null, 144 h)
CC1OCc2c1c(N)nc1cnc(C(=O)N3CCOCC3c3ccc(C(F)(F)C(F)(F)F)cc3)cc21 (mixture of isomers) [Example 337, ((3R)-4-amino-3-methyl-1,3-dihydrofuro[3,4-c][1,7]naphthyridin-8-yl)((3S)-3-(4-(pentafluoroethyl)phenyl)-4-morpholinyl)methanone and ((3S)-4-amino-3-methyl-1,3-dihydrofuro[3,4-c][1,7]naphthyridin-8-yl)((3S)-3-(4-(pentafluoroethyl)phenyl)-4-morpholinyl)methanone] | 1.47 µM | 0.03 µM |  | 
C[C@H]1COC[C@@H](c2ccc(C(F)(F)F)cn2)N1C(=O)c1cc2c3c(c(N)nc2cc1Cl)COC3 (racemic) [Example 301, (4-amino-7-chloro-1,3-dihydrofuro[3,4-c]quinolin-8-yl)((3R,5S)-3-methyl-5-(5-(trifluoromethyl)-2-pyridinyl)-4-morpholinyl)methanone and (4-amino-7-chloro-1,3-dihydrofuro[3,4-c]quinolin-8-yl)((3S,5R)-3-methyl-5-(5-(trifluoromethyl)-2-pyridinyl)-4-morpholinyl)methanone] |  |  | 0.06 µM | 0.006 µM
C[C@H]1COC[C@@H](c2ccc(C(F)(F)F)nc2)N1C(=O)c1cc2c3c(c(N)nc2cc1Cl)COC3 (racemic) [Example 302, (4-amino-7-chloro-1,3-dihydrofuro[3,4-c]quinolin-8-yl)((3R,5S)-3-methyl-5-(6-(trifluoromethyl)-3-pyridinyl)-4-morpholinyl)methanone and (4-amino-7-chloro-1,3-dihydrofuro[3,4-c]quinolin-8-yl)((3S,5R)-3-methyl-5-(6-(trifluoromethyl)-3-pyridinyl)-4-morpholinyl)methanone] |  |  | 0.167 µM | 0.011 µM
C[C@H]1COC[C@@H](c2ccc(C(F)(F)F)nc2)N1C(=O)c1ccc2nc(N)c3c(c2c1)COC3 (racemic) [Example 303, (4-amino-1,3-dihydrofuro[3,4-c]quinolin-8-yl)((3R,5S)-3-methyl-5-(6-(trifluoromethyl)-3-pyridinyl)-4-morpholinyl)methanone and (4-amino-1,3-dihydrofuro[3,4-c]quinolin-8-yl)((3S,5R)-3-methyl-5-(6-(trifluoromethyl)-3-pyridinyl)-4-morpholinyl)methanone] |  |  | 2.86 µM | 0.134 µM
C[C@H]1OCc2c1c(N)nc1ccc(C(=O)N3[C@@H](C)COC[C@H]3c3ccc(C(F)(F)F)nc3)cc21 (racemic) [Example 305, ((3R)-4-amino-3-methyl-1,3-dihydrofuro[3,4-c]quinolin-8-yl)((3R,5S)-3-methyl-5-(6-(trifluoromethyl)-3-pyridinyl)-4-morpholinyl)methanone and ((3R)-4-amino-3-methyl-1,3-dihydrofuro[3,4-c]quinolin-8-yl)((3S,5R)-3-methyl-5-(6-(trifluoromethyl)-3-pyridinyl)-4-morpholinyl)methanone] |  |  | 0.611 µM | 0.049 µM
CC(C)Oc1ccc([C@@H]2COC[C@H](C)N2C(=O)c2cc3c4c(c(N)nc3cn2)COC4)cn1 (racemic) [Example 306, (4-amino-1,3-dihydrofuro[3,4-c][1,7]naphthyridin-8-yl)((3R,5S)-3-methyl-5-(6-(2-propanyloxy)-3-pyridinyl)-4-morpholinyl)methanone and (4-amino-1,3-dihydrofuro[3,4-c][1,7]naphthyridin-8-yl)((3S,5R)-3-methyl-5-(6-(2-propanyloxy)-3-pyridinyl)-4-morpholinyl)methanone] |  |  | 2.13 µM | 0.096 µM
C[C@H]1OCc2c1c(N)nc1cnc(C(=O)N3[C@@H](C)COC[C@H]3c3ccc(C(F)(F)F)cn3)cc21 (racemic) [Example 307, ((3R)-4-amino-3-methyl-1,3-dihydrofuro[3,4-c][1,7]naphthyridin-8-yl)((3R,5S)-3-methyl-5-(5-(trifluoromethyl)-2-pyridinyl)-4-morpholinyl)methanone and ((3R)-4-amino-3-methyl-1,3-dihydrofuro[3,4-c][1,7]naphthyridin-8-yl)((3S,5R)-3-methyl-5-(5-(trifluoromethyl)-2-pyridinyl)-4-morpholinyl)methanone] |  |  | 0.492 µM | 0.022 µM
C[C@H]1OCc2c1c(N)nc1cnc(C(=O)N3[C@@H](C)COC[C@H]3c3ccc(C(F)(F)F)nc3)cc21 (racemic) [Example 308, ((3R)-4-amino-3-methyl-1,3-dihydrofuro[3,4-c][1,7]naphthyridin-8-yl)((3R,5S)-3-methyl-5-(6-(trifluoromethyl)-3-pyridinyl)-4-morpholinyl)methanone and ((3R)-4-amino-3-methyl-1,3-dihydrofuro[3,4-c][1,7]naphthyridin-8-yl)((3S,5R)-3-methyl-5-(6-(trifluoromethyl)-3-pyridinyl)-4-morpholinyl)methanone] |  |  | 1.72 µM | 0.046 µM
C[C@H]1COC[C@@H](c2ccc(C(F)(F)F)nc2)N1C(=O)c1cc2c3c(c(N)nc2cc1F)COC3 (racemic) [Example 309, (4-amino-7-fluoro-1,3-dihydrofuro[3,4-c]quinolin-8-yl)((3R,5S)-3-methyl-5-(6-(trifluoromethyl)-3-pyridinyl)-4-morpholinyl)methanone and (4-amino-7-fluoro-1,3-dihydrofuro[3,4-c]quinolin-8-yl)((3S,5R)-3-methyl-5-(6-(trifluoromethyl)-3-pyridinyl)-4-morpholinyl)methanone] |  |  | 0.688 µM | 0.04 µM
C[C@H]1OCc2c1c(N)nc1cnc(C(=O)N3[C@@H](C)COC[C@H]3c3ccc(Cl)nc3)cc21 (racemic) [Example 310, ((3R)-4-amino-3-methyl-1,3-dihydrofuro[3,4-c][1,7]naphthyridin-8-yl)((3R,5S)-3-(6-chloro-3-pyridinyl)-5-methyl-4-morpholinyl)methanone and ((3R)-4-amino-3-methyl-1,3-dihydrofuro[3,4-c][1,7]naphthyridin-8-yl)((3S,5R)-3-(6-chloro-3-pyridinyl)-5-methyl-4-morpholinyl)methanone] |  |  | 3.23 µM | 0.066 µM
C[C@H]1COC[C@@H](c2ccc(Cl)nc2)N1C(=O)c1cc2c3c(c(N)nc2cn1)COC3 (racemic) [Example 311, (4-amino-1,3-dihydrofuro[3,4-c][1,7]naphthyridin-8-yl)((3R,5S)-3-(6-chloro-3-pyridinyl)-5-methyl-4-morpholinyl)methanone and (4-amino-1,3-dihydrofuro[3,4-c][1,7]naphthyridin-8-yl)((3S,5R)-3-(6-chloro-3-pyridinyl)-5-methyl-4-morpholinyl)methanone] |  |  | 6.74 µM | 0.148 µM
C[C@H]1OCc2c1c(N)nc1ccc(C(=O)N3[C@@H](C)COC[C@H]3c3ccc(Cl)nc3)cc21 (racemic) [Example 312, ((3R)-4-amino-3-methyl-1,3-dihydrofuro[3,4-c]quinolin-8-yl)((3R,5S)-3-(6-chloro-3-pyridinyl)-5-methyl-4-morpholinyl)methanone and ((3R)-4-amino-3-methyl-1,3-dihydrofuro[3,4-c]quinolin-8-yl)((3S,5R)-3-(6-chloro-3-pyridinyl)-5-methyl-4-morpholinyl)methanone] |  |  | 3 µM | 0.071 µM
C[C@H]1COC[C@@H](c2ccc(Cl)nc2)N1C(=O)c1cc2c3c(c(N)nc2cc1F)COC3 (racemic) [Example 313, (4-amino-7-fluoro-1,3-dihydrofuro[3,4-c]quinolin-8-yl)((3R,5S)-3-(6-chloro-3-pyridinyl)-5-methyl-4-morpholinyl)methanone and (4-amino-7-fluoro-1,3-dihydrofuro[3,4-c]quinolin-8-yl)((3S,5R)-3-(6-chloro-3-pyridinyl)-5-methyl-4-morpholinyl)methanone] |  |  | 0.85 µM | 0.033 µM
C[C@H]1COC[C@@H](c2ccc(OC(F)F)nn2)N1C(=O)c1cc2c3c(c(N)nc2cc1F)COC3 (racemic) [Example 314, (4-amino-7-fluoro-1,3-dihydrofuro[3,4-c]quinolin-8-yl)((3R,5S)-3-(6-(difluoromethoxy)-3-pyridazinyl)-5-methyl-4-morpholinyl)methanone and (4-amino-7-fluoro-1,3-dihydrofuro[3,4-c]quinolin-8-yl)((3S,5R)-3-(6-(difluoromethoxy)-3-pyridazinyl)-5-methyl-4-morpholinyl)methanone] |  |  | 0.606 µM | 0.015 µM

Source: patent US11845760B2, “PRMT5 inhibitors” (AMGEN INC., priority 2020, dated 2023)
